Values belong to the compound of their own block, whether it stands above or below them.
Experiments:
[1] = tested on: Rattus norvegicus; experiment: Antiinflammatory activity against rat model of carrageenan induced paw edema assessed as inhibition of edema measured after 1 to 6 hrs relative to control; type: functional; details: time 1-6 hrs
[2] = target: T1, Polyunsaturated fatty acid 5-lipoxygenase (Homo sapiens, UniProt P09917); experiment: Inhibition of 5-LOX (unknown origin)
T1 sequence (P09917 whole entry): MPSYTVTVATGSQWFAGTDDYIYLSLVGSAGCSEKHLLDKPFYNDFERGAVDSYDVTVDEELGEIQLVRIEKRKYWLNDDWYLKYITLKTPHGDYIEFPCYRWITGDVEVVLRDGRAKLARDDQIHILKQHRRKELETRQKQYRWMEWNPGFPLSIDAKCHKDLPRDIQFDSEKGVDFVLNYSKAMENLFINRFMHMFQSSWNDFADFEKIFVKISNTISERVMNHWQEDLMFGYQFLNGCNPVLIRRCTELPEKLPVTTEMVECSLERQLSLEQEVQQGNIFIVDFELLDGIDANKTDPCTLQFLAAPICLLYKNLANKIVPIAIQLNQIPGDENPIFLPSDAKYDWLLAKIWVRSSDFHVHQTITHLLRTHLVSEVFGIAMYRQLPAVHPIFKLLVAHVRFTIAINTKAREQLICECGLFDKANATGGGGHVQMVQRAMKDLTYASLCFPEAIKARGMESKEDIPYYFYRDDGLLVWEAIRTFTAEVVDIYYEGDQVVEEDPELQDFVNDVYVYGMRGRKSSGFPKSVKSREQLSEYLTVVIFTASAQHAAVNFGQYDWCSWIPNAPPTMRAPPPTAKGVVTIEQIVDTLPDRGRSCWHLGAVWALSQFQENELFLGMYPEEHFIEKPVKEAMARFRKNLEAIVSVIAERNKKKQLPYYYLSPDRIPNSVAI

[3] = target: T2, Prostaglandin G/H synthase 2 (Homo sapiens, UniProt P35354); experiment: Inhibition of human COX-2 using arachidonic acid as substrate preincubated for 5 mins followed by substrate addition and measured after 2 mins by colorimetric assay
T2 sequence (P35354 whole entry): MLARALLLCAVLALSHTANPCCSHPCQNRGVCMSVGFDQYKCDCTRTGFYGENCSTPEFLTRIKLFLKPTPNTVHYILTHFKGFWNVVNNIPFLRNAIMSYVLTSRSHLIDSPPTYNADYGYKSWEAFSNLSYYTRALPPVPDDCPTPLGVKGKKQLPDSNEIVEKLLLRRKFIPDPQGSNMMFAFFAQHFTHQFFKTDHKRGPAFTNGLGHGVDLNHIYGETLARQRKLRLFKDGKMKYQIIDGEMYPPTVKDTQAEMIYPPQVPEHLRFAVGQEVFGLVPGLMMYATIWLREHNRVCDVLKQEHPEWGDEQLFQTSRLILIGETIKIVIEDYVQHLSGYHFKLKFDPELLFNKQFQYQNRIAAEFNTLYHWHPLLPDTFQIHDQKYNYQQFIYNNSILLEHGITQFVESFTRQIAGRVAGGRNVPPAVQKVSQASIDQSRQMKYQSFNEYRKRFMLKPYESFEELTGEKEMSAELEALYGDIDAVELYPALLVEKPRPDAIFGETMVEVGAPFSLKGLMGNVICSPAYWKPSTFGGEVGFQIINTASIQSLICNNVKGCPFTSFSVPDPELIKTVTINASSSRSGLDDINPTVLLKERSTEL

[4] = target: Alpha-glucosidase (Saccharomyces cerevisiae S288c, UniProt P53341+P38158+P07265); experiment: Inhibition of Saccharomyces cerevisiae alpha-glucosidase using PNPG as substrate preincubated for 10 mins followed by substrate addition by spectrophotometric method; type: protein assay
[5] = target: T2, Prostaglandin G/H synthase 2; experiment: Inhibition of human COX-2 using arachidonic acid as substrate preincubated for 10 mins followed by substrate addition and measured after 30 secs by ELISA
[6] = target: T2, Prostaglandin G/H synthase 2; experiment: Inhibition of human recombinant COX-2 using arachidonic acid as substrate preincubated for 5 mins followed by substrate addition and measured after 10 mins by microplate reader analysis
[7] = target: COX-1/COX-2 (Homo sapiens) (UniProt P35354+P23219); experiment: Selectivity index, ratio of IC50 for inhibition of COX-1 (unknown origin) to IC50 for inhibition of COX-2 (unknown origin); type: protein assay
[8] = target: T2, Prostaglandin G/H synthase 2; experiment: Inhibition of COX-2 (unknown origin)
[9] = target: T3, Dihydrofolate reductase (Homo sapiens, UniProt P00374); experiment: Inhibition of DHFR (unknown origin)
T3 sequence (P00374 whole entry): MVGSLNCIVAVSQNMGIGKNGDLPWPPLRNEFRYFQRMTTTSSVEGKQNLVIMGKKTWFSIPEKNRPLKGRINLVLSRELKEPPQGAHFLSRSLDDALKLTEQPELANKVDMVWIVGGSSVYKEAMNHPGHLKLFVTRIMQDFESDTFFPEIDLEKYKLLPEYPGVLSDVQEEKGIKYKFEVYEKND

[10] = target: T2, Prostaglandin G/H synthase 2; experiment: Inhibition of human COX-2 using arachidonic acid as substrate incubated for 30 secs by ELISA
[11] = Inhibition of soybean 5-LOX using linoleic acid as substrate preincubated for 5 mins followed by substrate addition and measured after 3 mins; set-up: species or system Glycine max

SMILES: COc1ccc(-c2cc(-c3ccc(F)cc3)n(-c3ccc(S(N)(=O)=O)cc3)n2)cc1
inhibition (INH) [1]: 42.1%

SMILES: CCCCCC1C(C)=c2c(OCc3nnc(SCC(=O)N4CCN(c5ccccc5)CC4)o3)nn(C)c(=O)c2=C1C (stereo not given)
IC50 [3]: 6800 nM

SMILES: CC(=O)Oc1cc2oc(-c3ccc(F)cc3)cc2cc1-c1c[se]nn1
IC50 [4]: 1030 nM

SMILES: CCCCCC1C(C)=c2c(OCc3nnc(SCC(=O)N4CCN(c5ncccn5)CC4)o3)nn(C)c(=O)c2=C1C (stereo not given)
IC50 [3]: 6800 nM

SMILES: CC(=O)c1nnn(-c2ccc(S(N)(=O)=O)cc2)c1C
Ratio IC50 [7]: 1.95
IC50 [8]: 2610 nM

SMILES: CC(=O)Oc1cc2oc(-c3ccc(C)cc3)cc2cc1-c1c[se]nn1
IC50 [4]: 1030 nM

SMILES: NS(=O)(=O)c1ccc(-c2nn(-c3ccc([N+](=O)[O-])cc3)cc2C=O)cc1
Ratio IC50 [7]: 0.008
IC50 [10]: 17 nM

SMILES: CC1=NN(c2ccc(S(N)(=O)=O)cc2)C(=O)/C1=C\c1ccc(F)cc1C
IC50 [6]: 150 nM

SMILES: Cc1c(C(=O)NN)nnn1-c1ccc(S(N)(=O)=O)cc1
Ratio IC50 [7]: 1.95
IC50 [8]: 2920 nM

SMILES: CS(=O)(=O)c1ccc(-n2cc(-c3ccc(C(F)(F)F)cc3)nn2)cc1
Ratio IC50 [7]: 0.008
IC50 [10]: 226 nM

SMILES: CS(=O)(=O)c1ccc(-c2nn(-c3ccc(S(N)(=O)=O)cc3)cc2C=O)cc1
Ratio IC50 [7]: 0.008
IC50 [10]: 17 nM

SMILES: CC(=O)Oc1cc2oc(-c3cccc(Cl)c3)cc2cc1-c1c[se]nn1
IC50 [4]: 1030 nM

SMILES: COc1ccc(-c2cc(-c3ccc(F)cc3)n(-c3ccc(S(N)(=O)=O)cc3)n2)cc1OC
inhibition (INH) [1]: 42.1%

SMILES: NS(=O)(=O)c1ccc(-n2cc(-c3ccc(C(F)(F)F)cc3)nn2)cc1
Ratio IC50 [7]: 0.008
IC50 [10]: 3320 nM

SMILES: CCC(=O)c1nnn(-c2ccc(S(N)(=O)=O)cc2)c1C
Ratio IC50 [7]: 1.95
IC50 [8]: 2610 nM

SMILES: CCOc1cc(/C=C2\C(=O)N(c3ccc(S(N)(=O)=O)cc3)N=C2C)ccc1O
IC50 [6]: 150 nM

SMILES: Nc1ccc(S(=O)(=O)Nc2ncccn2)cc1 [SULFADIAZINE]
IC50 [9]: 130 nM

Further lines, results first:

IC50 [2]: 600 nM
SMILES: COc1cc(/C=c2\c(=O)[nH]n3c(=O)c4ccccc4nc23)cc(OC)c1OC

IC50 [2]: 600 nM
IC50 [5]: 47 nM
SMILES: COc1ccccc1/C=c1\c(=O)[nH]n2c(=O)c3ccccc3nc12

IC50 [6]: 150 nM
SMILES: CC1=NN(c2ccc(S(N)(=O)=O)cc2)C(=O)/C1=C\c1cccc(OCc2ccccc2)c1

IC50 [9]: 280 nM
SMILES: NS(=O)(=O)c1ccc(N2C(=O)/C(=C/c3ccc(OC(=O)c4ccccc4)cc3)N=C2c2ccccc2)cc1

IC50 [6]: 150 nM
SMILES: COc1cc(/C=C2\C(=O)N(c3ccc(S(N)(=O)=O)cc3)N=C2C)ccc1OCC#N

Ratio IC50 [7]: 0.008
IC50 [10]: 2 nM
SMILES: CS(=O)(=O)c1ccc(C(=O)OCCn2cc(-c3ccc(C(F)(F)F)cc3)nn2)cc1

IC50 [6]: 150 nM
SMILES: CC1=NN(c2ccc(S(N)(=O)=O)cc2)C(=O)/C1=C\c1c[nH]c2ccccc12

IC50 [2]: 600 nM
IC50 [5]: 47 nM
SMILES: O=c1[nH]n2c(=O)c3ccccc3nc2/c1=C/c1cccc(F)c1

IC50 [11]: 48900 nM
SMILES: COc1ccc2cc([C@H](C)C(=O)N[C@@H](CCCCN)C(=O)N/C(=C\c3ccccc3)C(=O)O)ccc2c1

IC50 [11]: 22000 nM
SMILES: COc1ccc2cc([C@H](C)C(=O)O)ccc2c1 [NAPROXEN]

IC50 [11]: 48900 nM
SMILES: COc1ccc2cc([C@H](C)C(=O)N[C@@H](CCSC)C(=O)N/C(=C\c3ccccc3)C(=O)O)ccc2c1

IC50 [2]: 600 nM
IC50 [5]: 47 nM
SMILES: O=c1[nH]n2c(=O)c3ccccc3nc2/c1=C/c1ccccc1F

— ChEMBL document CHEMBL5241111, “Non-steroidal anti-inflammatory drugs: recent advances in the use of synthetic COX-2 inhibitors” (RSC Med Chem, 2022)
